Measurements taken from patent US12291654B2, “Fluorescent polymeric coating film for medical devices” (UNIVERSITE DE STRASBOURG, priority 2018, dated 2025).

Key:
[1] = Fluorescence of coating films made from different hydrophobic polymers (PMMA, PLGA, PLC); format: physicochemical; details: PLGA or PLC, FIG. 10A, 10B
Procedure: The coating films based on ICG are prepared as control.
Coating films made from different polymers were also tested.

[2] = NIR fluorescence of coated stainless steel wires (fluorescent image system); format: physicochemical; details: PMMA film, dye 1 wt %; coated 1, 2, 3 or 5 times; FIG. 1
Procedure: Polymethylmethacrylate is dissolved at 30 mg/ml in acetonitrile.
At this step the fiducial is ready to use.

**Q.** With `CCCCCCCCCCCCCCCCCCN1/C(=C/C=C/C=C/C=C/C2=[N+](CCCCCCCCCCCCCCCCCC)c3ccc4ccccc4c3C2(C)C)C(C)(C)c2c1ccc1ccccc21` [Cy7.5-C18-TPB, Dioctadecylcyanine 7.5 tetraphenylborate] as the compound, how does the “brightness of coating films, different polymers” value [1] read?
**A.** Its value is “better brightness than a coating film based on ICG”.

**Q.** What about the “NIR fluorescence of coating film on stainless steel wire” value [2] of the same compound?
**A.** The value was “visible after the first coating and increases by multiple coating”.

**Q.** Which “brightness of coating films, different polymers” value [1] does the source give for `CCCCCCCCCCCCCCCCCCN1/C(=C/C=C2\CCCC(/C=C/C3=[N+](CCCCCCCCCCCCCCCCCC)c4ccc5ccccc5c4C3(C)C)=C2Oc2c(-c3ccccc3)cccc2-c2ccccc2)C(C)(C)c2c1ccc1ccccc21.[I-]` [HA-06-I] here?
**A.** The value was “better brightness than a coating film based on ICG”.
